Measurements reported in ChEMBL document CHEMBL1201862, “PubChem BioAssay data set” (2004).
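Following 48 hours of exposure in 96-well plates, responses at five concentrations were used to interpolate endpoints linearly. GI50 marks 50% less growth.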 Active and inactive are the calls of the source. Cut-off read from the data, not from the text of the source: active = GI50 up to about 1.1 µM and inactive = higher.

How the values were obtained:
Test in all cases: NCI tumour cell line growth inhibition, 48 h
[1] = tested on: SF-295
[2] = tested on: HOP-18
[3] = tested on: K562
[4] = tested on: DMS-273
[5] = tested on: A498
[6] = tested on: XF498
[7] = tested on: EKVX
[8] = tested on: TK-10
[9] = tested on: OVCAR-8
[10] = tested on: SK-MEL-28
[11] = tested on: RXF 393
[12] = tested on: A549
[13] = tested on: Malme-3M
[14] = tested on: OVCAR-5
[15] = tested on: DMS-114

## COc1ccc(C(c2ccc(C(C)C)cc(=O)c2O)c2c(O)cc3oc(-c4ccccc4)cc(=O)c3c2O)cc1 (centres undefined)
[1]
  GI50: 4.93 µM (inactive)
[2]
  GI50: 17.3 µM (inactive)
[3]
  GI50: 3.03 µM (inactive)
[4]
  GI50: 5.08 µM (inactive)
[5]
  GI50: 18.6 µM (inactive)
[6]
  GI50: 9.4 µM (inactive)
[7]
  GI50: 12.6 µM (inactive)
[8]
  GI50: 9.42 µM (inactive)
[9]
  GI50: 6.9 µM (inactive)
[10]
  GI50: 17.1 µM (inactive)
[11]
  GI50: 3.71 µM (inactive)
[12]
  GI50: 3.35 µM (inactive)

## C[C@H]1COC(c2ccccn2)=N1
[13]
  GI50: > 100 µM (inactive)
[1]
  GI50: > 100 µM (inactive)
[2]
  GI50: > 100 µM (inactive)
[3]
  GI50: > 100 µM (inactive)
[4]
  GI50: > 100 µM (inactive)
[5]
  GI50: > 100 µM (inactive)
[6]
  GI50: > 100 µM (inactive)
[7]
  GI50: > 100 µM (inactive)
[9]
  GI50: > 100 µM (inactive)
[14]
  GI50: > 100 µM (inactive)
[10]
  GI50: > 100 µM (inactive)
[11]
  GI50: > 100 µM (inactive)
[12]
  GI50: > 100 µM (inactive)

## COc1ccc2oc(-c3cccnc3)cc(=O)c2c1
[13]
  GI50: > 100 µM (inactive)
[1]
  GI50: > 100 µM (inactive)
[15]
  GI50: 80.7 µM (inactive)
[3]
  GI50: 67.8 µM (inactive)
[4]
  GI50: 52 µM (inactive)
[5]
  GI50: 61.2 µM (inactive)
[6]
  GI50: 95.1 µM (inactive)
[14]
  GI50: > 10 µM (inactive)
[10]
  GI50: > 100 µM (inactive)
[11]
  GI50: > 100 µM (inactive)

## Cc1nc2ccc(C(F)(F)F)cc2nc1Nc1ccc(Cl)c(Cl)c1
[13]
  GI50: 19.9 µM (inactive)
[1]
  GI50: 3.4 µM (inactive)
[2]
  GI50: 15.3 µM (inactive)
[4]
  GI50: 4.81 µM (inactive)
[6]
  GI50: 10 µM (inactive)
[7]
  GI50: > 10 µM (inactive)
[8]
  GI50: 17.6 µM (inactive)
[9]
  GI50: 12.8 µM (inactive)
[14]
  GI50: 15.4 µM (inactive)
[10]
  GI50: 12.2 µM (inactive)
[11]
  GI50: 6.49 µM (inactive)
[12]
  GI50: 7.14 µM (inactive)

## CC1CCC(=O)C(C(O)CC2CC(=O)N(c3ccccc3)C(=O)C2)C1 (centres undefined)
[13]
  GI50: > 100 µM (inactive)
[1]
  GI50: > 100 µM (inactive)
[2]
  GI50: > 100 µM (inactive)
[15]
  GI50: > 100 µM (inactive)
[3]
  GI50: > 100 µM (inactive)
[4]
  GI50: > 100 µM (inactive)
[5]
  GI50: > 100 µM (inactive)
[7]
  GI50: > 100 µM (inactive)
[8]
  GI50: > 100 µM (inactive)
[9]
  GI50: > 100 µM (inactive)
[14]
  GI50: > 100 µM (inactive)
[10]
  GI50: > 100 µM (inactive)
[11]
  GI50: > 100 µM (inactive)
[12]
  GI50: > 100 µM (inactive)

## O=C(CC/C(C/C(=N/O)c1ccc(F)cc1)=N/O)N(Cc1ccccc1)Cc1ccccc1
[13]
  GI50: > 100 µM (inactive)
[1]
  GI50: > 100 µM (inactive)
[2]
  GI50: > 100 µM (inactive)
[15]
  GI50: > 100 µM (inactive)
[3]
  GI50: > 100 µM (inactive)
[4]
  GI50: > 100 µM (inactive)
[5]
  GI50: > 100 µM (inactive)
[7]
  GI50: 58.6 µM (inactive)
[8]
  GI50: > 100 µM (inactive)
[9]
  GI50: > 100 µM (inactive)
[14]
  GI50: > 100 µM (inactive)
[10]
  GI50: > 100 µM (inactive)
[11]
  GI50: > 100 µM (inactive)
[12]
  GI50: > 100 µM (inactive)

## CCC(C)C(=O)c1c(O)c(C/C=C(\C)CCC=C(C)C)c(O)c2c(C(O)CC)cc(=O)oc12 (centres undefined)
[13]
  GI50: 2.24 µM (inactive)
[1]
  GI50: 2.81 µM (inactive)
[15]
  GI50: 0.498 µM (active)
[3]
  GI50: 0.679 µM (active)
[4]
  GI50: 1.58 µM (inactive)
[5]
  GI50: 2.05 µM (inactive)
[6]
  GI50: 1.82 µM (inactive)
[7]
  GI50: 3.6 µM (inactive)
[8]
  GI50: 3.81 µM (inactive)
[14]
  GI50: 5.28 µM (inactive)
[10]
  GI50: 1.68 µM (inactive)
[11]
  GI50: 1.79 µM (inactive)
[12]
  GI50: 2.72 µM (inactive)

## NCCCCNCCCNC(=O)c1nc(-c2nc(CCN)sc2Cl)sc1Cl
[13]
  GI50: 58.6 µM (inactive)
[1]
  GI50: 59.8 µM (inactive)
[15]
  GI50: 18.8 µM (inactive)
[3]
  GI50: 9.35 µM (inactive)
[4]
  GI50: 50.4 µM (inactive)
[5]
  GI50: > 100 µM (inactive)
[6]
  GI50: > 100 µM (inactive)
[7]
  GI50: > 100 µM (inactive)
[8]
  GI50: > 100 µM (inactive)
[9]
  GI50: > 100 µM (inactive)
[14]
  GI50: > 100 µM (inactive)
[10]
  GI50: 46.5 µM (inactive)
[11]
  GI50: 12.4 µM (inactive)
[12]
  GI50: 44.5 µM (inactive)

## C[C@]12CCC(=O)C=C1CC[C@@H]1C2CC[C@]2(C)NC(=O)C(C#N)CC12 (some centres undefined)
[13]
  GI50: > 100 µM (inactive)
[1]
  GI50: > 100 µM (inactive)
[15]
  GI50: > 100 µM (inactive)
[3]
  GI50: > 100 µM (inactive)
[4]
  GI50: > 100 µM (inactive)
[5]
  GI50: > 100 µM (inactive)
[6]
  GI50: > 100 µM (inactive)
[8]
  GI50: > 100 µM (inactive)
[9]
  GI50: > 100 µM (inactive)
[14]
  GI50: > 100 µM (inactive)
[10]
  GI50: > 100 µM (inactive)
[11]
  GI50: > 100 µM (inactive)
[12]
  GI50: > 100 µM (inactive)

## CC1=NN(c2ccccc2)C(=O)C12[C@H](c1ccccc1)C2(C#N)C#N (some centres undefined)
[13]
  GI50: 4.68 µM (inactive)
[1]
  GI50: 12.9 µM (inactive)
[2]
  GI50: 7.48 µM (inactive)
[3]
  GI50: 1.85 µM (inactive)
[4]
  GI50: 2.67 µM (inactive)
[5]
  GI50: 16.9 µM (inactive)
[6]
  GI50: 3.4 µM (inactive)
[7]
  GI50: 18.3 µM (inactive)
[8]
  GI50: 12.5 µM (inactive)
[9]
  GI50: 2.84 µM (inactive)
[14]
  GI50: 11.5 µM (inactive)
[10]
  GI50: 3.48 µM (inactive)
[11]
  GI50: 5.19 µM (inactive)
[12]
  GI50: 16.3 µM (inactive)

## CC(=O)NC(CCCNC(=O)N(C)N=O)C(=O)NCc1ccccc1 (centres undefined)
[13]
  GI50: > 100 µM (inactive)
[1]
  GI50: > 100 µM (inactive)
[15]
  GI50: > 100 µM (inactive)
[3]
  GI50: > 100 µM (inactive)
[4]
  GI50: > 100 µM (inactive)
[5]
  GI50: > 100 µM (inactive)
[6]
  GI50: > 100 µM (inactive)
[7]
  GI50: > 100 µM (inactive)
[8]
  GI50: > 100 µM (inactive)
[9]
  GI50: > 100 µM (inactive)
[14]
  GI50: > 100 µM (inactive)
[10]
  GI50: > 100 µM (inactive)
[11]
  GI50: > 100 µM (inactive)
[12]
  GI50: > 100 µM (inactive)

## O=C(Nc1nc2ncn(CCO)c2c(=O)[nH]1)c1ccccc1
[13]
  GI50: > 100 µM (inactive)
[1]
  GI50: > 100 µM (inactive)
[2]
  GI50: > 100 µM (inactive)
[15]
  GI50: > 100 µM (inactive)
[3]
  GI50: > 100 µM (inactive)
[4]
  GI50: > 100 µM (inactive)
[5]
  GI50: > 100 µM (inactive)
[7]
  GI50: > 100 µM (inactive)
[8]
  GI50: > 100 µM (inactive)
[9]
  GI50: > 100 µM (inactive)
[14]
  GI50: > 100 µM (inactive)
[10]
  GI50: > 100 µM (inactive)
[11]
  GI50: > 100 µM (inactive)
[12]
  GI50: > 100 µM (inactive)

## CCCCCC[N+](C)(C)Cc1ccc(C[N+](C)(C)CCCCCC)cc1
[13]
  GI50: 7.76 µM (inactive)
[1]
  GI50: 2.79 µM (inactive)
[2]
  GI50: 4.69 µM (inactive)
[15]
  GI50: 1.75 µM (inactive)
[3]
  GI50: 1.61 µM (inactive)
[4]
  GI50: 1.83 µM (inactive)
[5]
  GI50: 11.2 µM (inactive)
[7]
  GI50: 3.94 µM (inactive)
[8]
  GI50: 5.64 µM (inactive)
[9]
  GI50: 3.1 µM (inactive)
[14]
  GI50: 10.9 µM (inactive)
[10]
  GI50: 4.95 µM (inactive)
[11]
  GI50: 0.984 µM (active)
[12]
  GI50: 3.36 µM (inactive)

## COc1cc(/C=C2/C(=O)NC(Cc3cc(OC)c(OC)c(C)c3OC)C(=O)N2Cc2ccccc2)c(OC)c(C)c1OC (centres undefined)
[13]
  GI50: 30.8 µM (inactive)
[1]
  GI50: 50.5 µM (inactive)
[2]
  GI50: 18.3 µM (inactive)
[15]
  GI50: 38.2 µM (inactive)
[3]
  GI50: 44.2 µM (inactive)
[4]
  GI50: 51.5 µM (inactive)
[5]
  GI50: 44.4 µM (inactive)
[7]
  GI50: 38.9 µM (inactive)
[8]
  GI50: 56.5 µM (inactive)
[9]
  GI50: 47.4 µM (inactive)
[14]
  GI50: 93.8 µM (inactive)
[10]
  GI50: > 100 µM (inactive)
[11]
  GI50: > 100 µM (inactive)
[12]
  GI50: > 100 µM (inactive)

## COC(=O)/C=c1\s/c(=C\C(=O)OC)c2ccccc12
[13]
  GI50: > 100 µM (inactive)
[1]
  GI50: > 100 µM (inactive)
[2]
  GI50: > 100 µM (inactive)
[15]
  GI50: > 100 µM (inactive)
[3]
  GI50: > 100 µM (inactive)
[4]
  GI50: 6.44 µM (inactive)
[5]
  GI50: > 100 µM (inactive)
[7]
  GI50: > 100 µM (inactive)
[8]
  GI50: > 100 µM (inactive)
[9]
  GI50: > 100 µM (inactive)
[14]
  GI50: > 100 µM (inactive)
[10]
  GI50: > 100 µM (inactive)
[11]
  GI50: > 100 µM (inactive)
[12]
  GI50: > 100 µM (inactive)
